These molecules were tested against T1, human GPR40 (Homo sapiens, UniProt O14842) (assay: Inositol Phosphate Turnover (IP1) Assay 2). Settings: HEK cells stably expressing human GPR40; compound acoustically transferred; 60 minutes at 37 degrees.
T1 construct: expressed in transfected cells; host or cells: HEK cells stably expressing the aequorin reporter
Assay type: cell-based
Description: (§1) Human and mouse GPR40 stable cell-lines were generated in CHO cells stably expressing NFAT BLA (Beta-lactamase). A human GPR40 stable cell-line was generated in HEK cells stably expressing the aequorin expressing reporter. The expression plasmids were transfected using lipofectamine (Life Technologies) following manufacturer's instructions. Stable cell-lines were generated following drug selection.
(§2) The assay is performed in 384-well format. HEK cells stably expressing human GPR40 are plated at 15,000 cells per well in growth medium (DMEM/10% fetal calf serum). Cell plates are then incubated 16 hours at 37 degrees in a 5% CO2 incubator.
(§3) Measurement of Inositol Phosphate Turnover (IP1) is performed using the CisBio IP-One kit (Part number 62IPAPEB). After the 16 hour incubation, the cells are washed with HEPES buffer and 10 ul of stimulation buffer (prepared as described in the kit) is added to each well. In a separate plate, compounds are diluted in DMSO (400-fold over the final concentration in the assay well) and 25 nl is acoustically transferred to the appropriate well in the assay cell plate. The plates were then incubated for 60 minutes at 37 degrees. 10 ul of detection buffer (also prepared as described in the IP-One kit) is added to each well and the plates are incubated for 60 minutes in the dark. The plates are then read in a Perkin Elmer EnVision or equivalent reader able to measure FRET. Fluorescent ratio of emission at 665 and 620 nm is then converted to IP1 concentration by back calculating from an IP1 standard curve prepared at the time of the assay.

T1 sequence (O14842 whole entry): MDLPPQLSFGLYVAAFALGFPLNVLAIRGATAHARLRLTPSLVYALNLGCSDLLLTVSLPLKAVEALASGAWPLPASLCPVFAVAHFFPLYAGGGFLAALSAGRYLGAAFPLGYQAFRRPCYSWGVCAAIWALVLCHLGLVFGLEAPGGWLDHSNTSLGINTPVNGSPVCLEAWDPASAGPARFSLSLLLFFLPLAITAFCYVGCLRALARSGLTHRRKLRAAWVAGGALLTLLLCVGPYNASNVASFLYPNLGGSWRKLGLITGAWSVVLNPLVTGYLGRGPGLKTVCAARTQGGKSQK

| SMILES | EC50 [nM] |
| --- | --- |
| COc1cc(-c2ccc(C3COc4ccc([C@H](C5CC5)[C@H](C)C(=O)O)cc4C3)c(F)c2)ccn1 (single isomer, unassigned) [Example 17] | 15 |
| COc1cc(-c2ccc(C3COc4ccc([C@H](C5CC5)[C@H](C)C(=O)O)cc4C3)c(F)c2)ccn1 (single isomer, unassigned) [Example 18] | 8.1 |
| COc1cc(-c2ccc(C3=Cc4cc([C@@H](C5CC5)[C@H](C)C(=O)O)ccc4CC3)c(F)c2)ccn1 (single isomer, unassigned) [Example 29] | 3960 |
| COc1cc(-c2ccc(C3=Cc4cc([C@@H](C5CC5)[C@@H](C)C(=O)O)ccc4CC3)c(F)c2)ccn1 (single isomer, unassigned) [Example 30] | 3.8 |
| COc1cc(-c2ccc(C3=Cc4cc([C@H](C5CC5)[C@H](C)C(=O)O)ccc4CC3)c(F)c2)ccn1 (single isomer, unassigned) [Example 31] | 0.5 |
| COc1cc(-c2ccc(C3=Cc4cc([C@H](C5CC5)[C@@H](C)C(=O)O)ccc4CC3)c(F)c2)ccn1 (single isomer, unassigned) [Example 32] | 28 |
| COc1cc(-c2ccc(C3CCc4ccc(C(C5CC5)C(C)C(=O)O)cc4C3)c(F)c2)ccn1 (single isomer, unassigned) [Example 33, 3-cyclopropyl-3-(7-(2-fluoro-4-(2-methoxypyridin-4-yl)phenyl)-5,6,7,8-tetrahydronaphthalen-2-yl)-2-methylpropanoic acid] | 1.4 |
| COc1cc(-c2ccc(C3CCc4ccc(C(C5CC5)C(C)C(=O)O)cc4C3)c(F)c2)ccn1 (single isomer, unassigned) [Example 34] | 13 |
| COc1cc(-c2ccc(C3CCc4ccc(C(C5CC5)C(C)C(=O)O)cc4C3)c(F)c2)ccn1 (single isomer, unassigned) [Example 35] | 257 |
| COc1cc(-c2ccc(C3CCc4ccc(C(C5CC5)C(C)C(=O)O)cc4C3)c(F)c2)ccn1 (single isomer, unassigned) [Example 36] | 4.8 |
| COc1cc(-c2ccc(C3CCc4ccc(C(C5CC5)C(C)C(=O)O)cc4C3)c(F)c2)ccn1 (single isomer, unassigned) [Example 37] | 0.42 |
| COc1cc(-c2ccc(C3Cc4cc([C@H](C5CC5)[C@H](C)C(=O)O)ccc4CO3)cc2)c(F)cn1 (single isomer, unassigned) [Example 39A] | 0.76 |
| COc1cc(-c2ccc(C3Cc4cc([C@H](C5CC5)[C@H](C)C(=O)O)ccc4CO3)cc2)c(F)cn1 (single isomer, unassigned) [Example 39B] | 5.2 |
| COc1ccc(F)c(-c2ccc([C@@H]3Cc4cc([C@H](C5CC5)[C@H](C)C(=O)O)ccc4CO3)cc2)c1 [Example 21, (2S,3R)-3-cyclopropyl-3-((S)-3-(2′-fluoro-5′-methoxy-[1,1′-biphenyl]-4-yl)isochroman-6-yl)-2-methylpropanoic acid] | 0.21 |

Each molecule was assayed against T1, human GPR40 (assay: Inositol Phosphate Turnover (IP1) Assay 1). Settings: HEK cells stably expressing human GPR40; compound transferred via pocket tip; 60 minutes at 37 degrees.
Assay type: cell-based
Description: as §1, §2
as §3, with “is” for “is acoustically”, “transferred via pocket tip” for “transferred”, “are” for “were”

| SMILES | EC50 [nM] |
| --- | --- |
| COc1ccc(F)c(-c2ccc(C3Cc4cc(C(CC(=O)O)C5CC5)ccc4CO3)cc2)c1 (mixture of isomers) [Example 20, 3-cyclopropyl-3-(3-(2′-fluoro-5′-methoxy-[1,1′-biphenyl]-4-yl)isochroman-6-yl)propanoic acid] | 5380 |
| COc1ccc(F)c(-c2ccc(C3COc4ccc(C(CC(=O)O)C5CC5)cc4C3)cc2)c1 (single isomer, unassigned) [Example 3] | 330 |
| COc1ccc(F)c(-c2ccc(C3COc4ccc(C(CC(=O)O)C5CC5)cc4C3)cc2)c1 (single isomer, unassigned) [Example 4] | 75 |
| COc1ccc(F)c(-c2ccc(C3COc4ccc(C(CC(=O)O)C5CC5)cc4C3)cc2)c1 (single isomer, unassigned) [Example 5] | 106 |
| COc1ccc(F)c(-c2ccc(C3COc4ccc([C@H](C5CC5)[C@H](C)C(=O)O)cc4C3)cc2)c1 (single isomer, unassigned) [Example 6] | 5.6 |
| COc1ccc(F)c(-c2ccc(C3COc4ccc([C@H](C5CC5)[C@H](C)C(=O)O)cc4C3)cc2)c1 (single isomer, unassigned) [Example 7] | 3 |
| COc1ccc(F)c(-c2ccc(C3COc4ccc([C@@H](C5CC5)[C@@H](C)C(=O)O)cc4C3)cc2)c1 (single isomer, unassigned) [Example 8] | 169 |
| COc1ccc(F)c(-c2ccc(C3COc4ccc([C@@H](C5CC5)[C@@H](C)C(=O)O)cc4C3)cc2)c1 (single isomer, unassigned) [Example 9] | 60 |
| COc1cc(-c2ccc(C3COc4ccc([C@H](C5CC5)[C@H](C)C(=O)O)cc4C3)cc2)c(F)cn1 (single isomer, unassigned) [Example 10] | 13 |
| COc1cc(-c2ccc(C3COc4ccc([C@H](C5CC5)[C@H](C)C(=O)O)cc4C3)cc2)c(F)cn1 (single isomer, unassigned) [Example 11] | 6.3 |
| COc1cc(-c2ccc(C3COc4ccc([C@H](C5CC5)[C@H](C)C(=O)O)cc4C3)cc2)ccn1 (single isomer, unassigned) [Example 15] | 26 |
| COc1cc(-c2ccc(C3COc4ccc([C@H](C5CC5)[C@H](C)C(=O)O)cc4C3)cc2)ccn1 (single isomer, unassigned) [Example 16] | 12 |
| COc1ccc(F)c(-c2ccc(C3Cc4cc([C@H](C5CC5)[C@H](C)C(=O)O)ccc4C(=O)O3)cc2)c1 (stereo in doubt) [Example 24, (2S,3R)-3-cyclopropyl-3-((S)-3-(2′-fluoro-5′-methoxy-[1,1′-biphenyl]-4-yl)-1-oxoisochroman-6-yl)-2-methylpropanoic acid] | 166 |
| COc1ccc(F)c(-c2ccc(C3COc4ccc(C(CC(=O)O)C5CC5)cc4C3)cc2)c1 (stereo not shown) [Example 1, 3-cyclopropyl-3-(3-(2′-fluoro-5′-methoxy-[1,1′-biphenyl]-4-yl)chroman-6-yl)propanoic acid] | 155 |
| COc1cc(-c2ccc(C3COc4ccc([C@H](C5CC5)[C@H](C)C(=O)O)cc4C3)cc2)ccn1 (stereo partly shown) [Example 12] | 12 |
| Cc1cccc(C)c1-c1ccc(C2COc3ccc([C@H](C4CC4)[C@H](C)C(=O)O)cc3C2)cc1 (stereo partly shown) [Example 13] | 592 |
| COc1cc(-c2ccc(C3COc4ccc([C@H](C5CC5)[C@H](C)C(=O)O)cc4C3)c(F)c2)ccn1 (stereo partly shown) [Example 14] | 32 |
| C[C@H](C(=O)O)[C@H](c1ccc2c(c1)CC(c1ccc(-c3cccc(OC4CC4)c3)cc1)CO2)C1CC1 (stereo partly drawn) [Example 19, (2S,3R)-3-(3-(3′-cyclopropoxy-[1,1′-biphenyl]-4-yl)chroman-6-yl)-3-cyclopropyl-2-methylpropanoic acid] | 250 |
| COc1ccc(F)c(-c2ccc([C@@H]3Cc4cc([C@H](C5CC5)[C@H](C)C(=O)O)ccc4C(=O)O3)cc2)c1 [Example 23, (2S,3R)-3-cyclopropyl-3-((S)-3-(2′-fluoro-5′-methoxy-[1,1′-biphenyl]-4-yl)-1-oxoisochroman-6-yl)-2-methylpropanoic acid] | 424 |
| C[C@H](C(=O)O)[C@H](c1ccc2c(c1)CC(C1CCN(Cc3cc(C(F)(F)F)ccc3C(F)(F)F)CC1)CO2)C1CC1 (stereo partly drawn) [Example 25, Sodium (2S,3R)-3-(3-(1-(2,5-bis(trifluoromethyl)benzyl)piperidin-4-yl)chroman-6-yl)-3-cyclopropyl-2-methylpropanoate] | 729 |
| COc1ccc(F)c(-c2ccc(C3CCc4ccc(C(C5CC5)C(C)C(=O)O)cc4C3)cc2)c1 (stereo not shown) [Example 26, 3-cyclopropyl-3-(7-(2′-fluoro-5′-methoxy-[1,1′-biphenyl]-4-yl)-5,6,7,8-tetrahydronaphthalen-2-yl)-2-methylpropanoic acid] | 24 |
| COc1ccc(F)c(-c2ccc(C3CSc4ccc([C@H](C5CC5)[C@H](C)C(=O)O)cc4C3)cc2)c1 (stereo partly drawn) [Example 27, (2S,3R)-3-cyclopropyl-3-(3-(2′-fluoro-5′-methoxy-[1,1′-biphenyl]-4-yl)thiochroman-6-yl)-2-methylpropanoic acid] | 6.9 |
| COc1ccc(F)c(-c2ccc(C3Cc4cc([C@H](C5CC5)[C@H](C)C(=O)O)ccc4S(=O)(=O)C3)cc2)c1 (stereo partly drawn) [Example 28, (2S,3R)-3-Cyclopropyl-3-(3-(2′-fluoro-5′-methoxy-[1,1′-biphenyl]-4-yl)-1,1-dioxidothiochroman-6-yl)-2-methylpropanoic acid] | 69 |
